The record followed here is patent US4092350A, “Alkanoic acid, process for its production and method of use thereof” (priority 1975, dated 1978).

Series [1] in a line: Inhibition of Granuloma Formation by Granuloma Pouch Method. In kind it is in vivo, male Wistar rats. To be noted: rat, in vivo; rats, oral; ratio of LD50 to ED20; read-out: LD50/ED20, Granuloma Pouch Method (safety margin). The method, then:
(§1) (c) Inhibition of Granuloma Formation by Gramuloma Pouch Method
(§2) Thereafter, the compounds were administered orally. Beginning the next day, the compounds were administered orally at 9:00 a.m. and 4:00 p.m. for 6 days. The day after final administration, the granuloma pouches were removed and weighed. Inhibitory percentage was calculated as follows: [formula] (d) Acute Toxicity

Series [2] relates to Granuloma Formation. The description is as above. To be noted: Rattus norvegicus, 144 h; for ED20: read-out: ED20, Inhibition of Granuloma Formation by Granuloma Pouch Method. In kind it is in vivo, male Wistar rats. The method, then:
as §1, §2

Series [3] can be described thus: Inhibition of Intraperitoneal Dye Leakage. The class given is in vivo, male Donryu rats. To be noted: rat, in vivo; rats, oral; ratio of LD50 to ED30; read-out: LD50/ED30, Intraperitoneal Dye Leakage (safety margin). The method, then:
(§3) Inhibitory percentage was calculated as follows. [formula] (b) Inhibition of Intraperitoneal Dye Leakage
(§4) Five minutes thereafter, 0.2 ml. / 100 g. body weight of 3% acetic acid was injected intraperitoneally. The dye in the peritoneal exudation, sampled 45 minutes after the acetic acid injection, was subjected to the spectro-photometric estimation at 620 mμ. Inhibitory percentage was calculated as follows. [formula]

For series [4], the system named is Intraperitoneal Dye Leakage. In words: Inhibition of Intraperitoneal Dye Leakage. In kind it is in vivo, male Donryu rats. To be noted: Rattus norvegicus, 0.75 h, rats, oral. The method, then: as §3, §4
A short description of series [5]: in vivo. To be noted: rats, oral, 7-day observation. The method, then: as §2
The compounds were administered orally in male Wistar rats weighing 200 ± 10 g. The rats were observed over a 7-day period.

In series [6] the test system is Acetylcholine-Induced Writhing. In words: Analgesic Activity by Acetylcholine-Induced Writhing Method in Mice. The class given is in vivo, male SLC-ICR mice. As to conditions: Mus musculus, oral, 60 minutes before acetylcholine. The method, then: Following the method of C. A. Winter, et al. (J. Pharmac. Exp., Ther., 141, 369 (1963)), in male Donryu rats weighing 130 ± 10 g., two sterilized cotton pellets weighing 35 ± 1 mg. respectively were embedded subcutaneously at the lateral abdomen aseptically. Thereafter, the compounds were administered orally. Beginning the next day, the compounds were administered orally at 9:00 a.m. and 4:00 p.m. for 3 days. The day after final administration, the pellets were removed, dried and weighed to determine the weight of the granuloma formed around the pellets. Inhibitory percentage was calculated as follows: [formula] (f) Analgesic Activity by Acetylcholine-Induced Writhing Method in Mice
Following the method of S. S. Adams (Arch. Int. Pharmacodyn., 178, 115 (1969)), in male SLC-ICR mice weighing 20 ± 1 g., the writhing response was caused by the intraperitoneal injection of 0.1 ml. / 10 g. body weight of 7.5 mg. / kg. acetylcholine dissolved in physiological saline. The test compounds were administered orally 60 minutes before the acetylcholine injection, after which the frequency of response was counted in each animal for 8 minutes. Inhibitory percentage was calculated as follows. [formula] Note; Compound A: 2-[4-(2-methyl-3-oxobutyl)phenyl]propionic acid, […]
In general terms: In writhing tests, fewer writhes than in controls are read as antinociception.

The nature of series [7]: Inhibition of Granuloma Formation by Cotton Pellet Method. The class given is in vivo, male Donryu rats. As to conditions: rat, in vivo; rats, oral; ratio of LD50 to ED20; read-out: LD50/ED20, Cotton Pellet Method (safety margin). The method, then: (§5) (e) Inhibition of Granuloma Formation by Cotton Pellet Method
(§6) Following the method of C. […] Thereafter, the compounds were administered orally. Beginning the next day, the compounds were administered orally at 9:00 a.m. and 4:00 p.m. for 3 days. The day after final administration, the pellets were removed, dried and weighed to determine the weight of the granuloma formed around the pellets. Inhibitory percentage was calculated as follows: [formula] (f) Analgesic Activity by Acetylcholine-Induced Writhing Method in Mice

Series [8] relates to Granuloma Formation. The description is as above. The class given is in vivo, male Donryu rats. As to conditions: Rattus norvegicus, 72 h; rats, oral, twice daily for 3 days. The method, then: as §5, §6
Series [9] is described as follows: Inhibition of Carrageenin-Induced Paw Edema. In kind it is in vivo, male Donryu rats. To be noted: rat, in vivo; rats, oral; ratio of LD50 to ED40; read-out: LD50/ED40, Carrageenin-Induced Paw Edema (safety margin). The method, then:
(§7) (a) Inhibition of Carrageenin-Induced Paw Edema
(§8) Following the method of C. […] The volume of the paw was measured before and 3 hours after the carrageenin injection. The swelling index of the inflamed paw was calculated as follows. [formula]
as §3
A general note: Carrageenan injected into the paw causes an acute inflammation.

Series [10] deals with Carrageenin-Induced Paw Edema. In words: Inhibition of Carrageenin-Induced Paw Edema. The class given is in vivo, male Donryu rats. To be noted: Rattus norvegicus, rats, oral; for ED40: 3 h. The method, then: as §7, §8, §3
Setting [11] is: po, read-out: Inhibition of Granuloma Formation by Granuloma Pouch Method, Inhibition (%).

Read-outs that look alike come from different tables or passages of the source.

In general, inhibition refers to the change of the read-out against control, counted positive when it falls. The term LD50 denotes the dose at which mortality reaches 50%. Broadly, the ED50 is the midpoint of the dose-response relation.

Turning to `CCC(Cc1ccc(C(C)C(=O)O)cc1)C(C)O` (centres unmarked) [Compound D, 2-[4-(2-ethyl-3-hydroxybutyl)phenyl]propionic acid], the selectivity ratio was determined as 181 in series [1], 426 in [3], 400 in series [7] and 52.8 in series [9]. For the same compound, the ED20 in [2] (po) amounted to 0.73 mg/kg; in series [8] it was 0.33 mg/kg. Also, the inhibition at 1 mg/kg in [2] (setting [11]) was 23.5%. This compound also showed an ED30 in series [4] of 0.31 mg/kg. Besides, in [4] (45 minutes after acetic acid), the inhibition at 0.5 mg/kg was determined as 34.4%. Also, in series [5] (rat, in vivo, read-out: Acute Toxicity LD50), the 50% lethal dose (LD50) at 168 h amounted to 132 mg/kg. Also, in series [5] (125 mg/kg), the “Acute Toxicity, Died/Treated” value was 3/8. Further, the ED50 in series [6] was determined as 2.7 mg/kg. The compound also came in with an ED40 in series [10] of 2.5 mg/kg. The compound also had an inhibition at 2 mg/kg in series [10] (3 hours after carrageenin) of 38.1%.
In the case of `CC(C)Cc1ccc(C(C)C(=O)O)cc1` (centres unmarked) [Ibuprofen, reference compound], the ED20 in series [2] (po) was found to be 42 mg/kg; in series [8], 22 mg/kg. The inhibition at 50 mg/kg in series [2] (setting [11]) was determined as 21.1%. The same compound showed an ED30 in series [4] of 17 mg/kg. Besides, the inhibition at 10 mg/kg is 17.8% in series [4] (10 mg/kg, 45 minutes after acetic acid) and 31.2% in series [10] (10 mg/kg, 3 hours after carrageenin). Also, the “Acute Toxicity, Died/Treated” value in series [5] (625 mg/kg) is given as 3/8. Besides, the 50% effect level in series [6] (ED50) was put at a dose of 4.7 mg/kg. In series [10], this compound had an ED40 of 16 mg/kg.
As for `CCC(Cc1ccc(C(C)C(=O)O)cc1)C(C)=O` (centres unmarked) [Compound C, 2-[4-(2-ethyl-3-oxobutyl)phenyl]propionic acid], in series [2] (rats, oral, 1 mg/kg, twice daily for 6 days, read-out: Inhibition of Granuloma Formation by Granuloma Pouch Method, Inhibition (%)), the inhibition at 1 mg/kg came to 22.7%. In [4] (45 minutes after acetic acid), this compound came in with an inhibition at 0.5 mg/kg of 28.2%. For the same compound, the “Acute Toxicity, Died/Treated” value in series [5] (125 mg/kg) is listed as 2/8. The same compound displayed an inhibition at 2 mg/kg in [10] (3 hours after carrageenin) of 35.2%.
As for `CC(=O)C(C)Cc1ccc(C(C)C(=O)O)cc1` (centres unmarked) [Compound A, 2-[4-(2-methyl-3-oxobutyl)phenyl]propionic acid], the inhibition at 8 mg/kg in series [2] (rats, oral, 8 mg/kg, twice daily for 6 days) was found to be 22.3%. The compound also displayed an inhibition at 2 mg/kg in series [4] (45 minutes after acetic acid) of 30.6%. Further, the “Acute Toxicity, Died/Treated” value in series [5] (250 mg/kg) was 1/8. Also, the inhibition at 3 mg/kg in series [10] (3 hours after carrageenin) came out at 31.7%.
For the compound `CC(C(=O)O)c1ccc(CC(C)C(C)O)cc1` (centres unmarked) [Compound B, 2-[4-(2-methyl-3-hydroxybutyl)phenyl]propionic acid], testing at 6 mg/kg in series [2] (rats, oral, 6 mg/kg, twice daily for 6 days) gave an inhibition of 24.2%. Besides, the inhibition at 2 mg/kg in [4] (45 minutes after acetic acid) turned out to be 35.3%. For the same compound, the “Acute Toxicity, Died/Treated” value in series [5] (250 mg/kg) is 1/8. The compound also registered an inhibition at 3 mg/kg in series [10] (3 hours after carrageenin) of 34.9%.
